Assay results as given in patent US9409879B2, “Total synthesis of redox-active 1.4-naphthoquinones and their metabolites and their therapeutic use as antimalarial and schistomicidal agents” (CENTRE NATIONAL DE LA RECHERCHE SCIENTIFIQUE, priority 2011, dated 2016).
Structures can show the parent of a compound that is named as a salt.

How the values were obtained:
hematin polymerization = experiment: Inhibition of the hematin polymerisation (β-hematin formation), UV-Vis absorbance at 405 nm; format: biochemical; details: for Maximum inhibition (%) / IC50 drug (equiv.)/hematin (equiv.) ratio: inhibition of β-hematin formation; for IC50 drug (equiv.)/hematin (equiv.) ratio: absorbance at 405 nm
Experimental: The antischistosomial effect is measured by the evaluation of the ability of the compounds to inhibit hematin polymerization according to the biochemical assay previously developed by Ncokazi. K. K. Egan. T. J. Anal. Biochem. 2005, 338, 306-319 adapted to the compounds of the present invention. The assays were monitored by UV-Vis absorption spectrophotometry and IC50 values for inhibition of β-hematin formation were determined from the absorbance at 405 nm versus the drug (equiv.)/hematin (equiv.) ratio.

[1] = Complex formation with hematin (apparent association constants); format: binding; details: pH 7.5; 1:1 charge-transfer complexes with hematin
Description: Both 3-benzylnaphtoquinone derivatives form 1:2 or 2:1 complexes with hematin displaying apparent association constants at pH 7.5 of about 10^11-10^13 M^−1. Also the benzoxanthone derivative LJ144K form 1:1 charge-transfer complexes with hematin displaying apparent association constants at pH 7.5 of about 10^5-10^6 M^−1.

P. falciparum strain 3D7 = experiment: Antimalarial assay, chloroquine-sensitive P. falciparum 3D7; format: cell-based, Plasmodium falciparum; details: chloroquine-sensitive strain 3D7
P. falciparum strain Dd2 = experiment: 3H-hypoxanthine incorporation antiproliferation assay, P. falciparum Dd2; format: cell-based, Plasmodium falciparum; details: multi-resistant P. falciparum strain Dd2
Experimental: Infected erythrocytes in ring stage (0.5% parasitemia, 2.5% hematocrit) in 96-well plates were exposed to the compounds for 48 h and then to radioactive hypoxanthine for 24 h. The amount of radioactivity in precipitable material served as an index of cell proliferation.

| SMILES | melting point | also measured |
| --- | --- | --- |
| CC1=C(Cc2ccc(C(F)(F)F)cc2)C(=O)c2cc(OS(=O)(=O)C(F)(F)F)ccc2C1=O (as salt: methanesulfonate) [Compound 12.29, 6-methyl-5,8-dioxo-7-(4-(trifluoromethyl)benzyl)-5,8-dihydronaphthalen-2-yl trifluoromethanesulfonate] | 127 °C |  |
| CC1=C(Cc2ccc(C(F)(F)F)cc2)C(=O)c2ccc(OS(=O)(=O)C(F)(F)F)cc2C1=O (as salt: methanesulfonate) [Compound 12.30, 7-methyl-5,8-dioxo-6-(4-(trifluoromethyl)benzyl)-5,8-dihydronaphthalen-2-yl trifluoromethanesulfonate] | 87 to 88 °C |  |
| COc1ccc2c(c1)C(=O)C(Cc1ccc(Br)cc1)=C(C)C2=O [Compound 12.1, 3-(4-bromobenzyl)-6-methoxy-2-methylnaphthalene-1,4-dione] | 135 to 137 °C |  |
| COc1ccc2c(c1)C(=O)C(Cc1ccc(C(F)(F)F)cc1)=C(C)C2=O [Compound 12.2] | 86 to 87 °C |  |
| COc1cc(CC2=C(C)C(=O)c3ccc(OC)cc3C2=O)cc(OC)c1 [Compound 12.4, 3-(3,5-dimethoxybenzyl)-6-methoxy-2-methylnaphthalene-1,4-dione] | 149 °C |  |
| CC1=C(Cc2ccc(Br)cc2)C(=O)c2cc(F)ccc2C1=O [Compound 12.5, 3-(4-bromobenzyl)-6-fluoro-2-methylnaphthalene-1,4-dione] | 127 to 129 °C |  |
| COc1ccc2c(c1)C(=O)C(C)=C(Cc1ccc(Br)cc1)C2=O [Compound 12.7, 3-(4-bromobenzyl)-7-methoxy-2-methylnaphthalene-1,4-dione] | 149 to 151 °C |  |
| COc1ccc2c(c1)C(=O)C(C)=C(Cc1ccc(C(F)(F)F)cc1)C2=O [Compound 12.8] | 137 to 139 °C |  |
| COc1cc(CC2=C(C)C(=O)c3cc(OC)ccc3C2=O)cc(OC)c1 [Compound 12.9, 3-(3,5-dimethoxybenzyl)-7-methoxy-2-methylnaphthalene-1,4-dione] | 151 to 153 °C |  |
| COc1cc2c(cc1OC)C(=O)C(Cc1ccc(C(F)(F)F)cc1)=C(C)C2=O [Compound 12.11, 6,7-dimethoxy-2-methyl-3-(4-(trifluoromethyl)benzyl)naphthalene-1,4-dione] | > 200 °C (dec.) |  |
| COc1cc2c(cc1OC)C(=O)C(Cc1ccc(Br)cc1)=C(C)C2=O [Compound 12.12, 6,7-dimethoxy-2-methyl-3-(4-bromobenzyl)naphthalene-1,4-dione] | > 200 °C (dec.) |  |
| COc1cc(CC2=C(C)C(=O)c3cc(OC)c(OC)cc3C2=O)cc(OC)c1 [Compound 12.13, 2-(3,5-dimethoxybenzyl)-6,7-dimethoxy-3-methylnaphthalene-1,4-dione] | 168 to 169 °C |  |
| COc1ccc(OC)c(CC2=C(C)C(=O)c3cc(OC)c(OC)cc3C2=O)c1 [Compound 12.14, 2-14(2,5-dimethoxybenzyl)-6,7-dimethoxy-3-methylnaphthalene-1,4-dione] | 166 to 167 °C |  |
| CC1=C(Cc2ccc(Br)cc2)C(=O)c2ccc(F)cc2C1=O [Compound 12.16, 2-(4-bromobenzyl)-6-fluoro-3-methylnaphthalene-1,4-dione] | 107 °C |  |
| CC1=C(Cc2ccc(F)c(Cl)c2)C(=O)c2ccc(F)cc2C1=O [Compound 12.17, 2-(3-chloro-4-fluorobenzyl)-6-fluoro-3-methylnaphthalene-1,4-dione] | 117 to 118 °C |  |
| CC1=C(Cc2ccc(F)c(C(F)(F)F)c2)C(=O)c2ccc(F)cc2C1=O [Compound 12.18, 6-fluoro-2-(4-fluoro-3-(trifluoromethyl)benzyl)-3-methylnaphthalene-1,4-dione] | 106 to 107 °C |  |
| CC1=C(Cc2ccc(C(F)(F)F)cc2)C(=O)c2c(C)cccc2C1=O [Compound 12.19, 2,5-dimethyl-3-(4-(trifluoromethyl)benzyl)naphthalene-1,4-dione] | 87 to 88 °C |  |
| CC1=C(Cc2ccc(Br)cc2)C(=O)c2c(C)cccc2C1=O [Compound 12.20, 3-(4-bromobenzyl)-2,5-dimethylnaphthalene-1,4-dione] | 149 to 150 °C |  |
| CC1=C(Cc2ccc(C(F)(F)F)cc2)C(=O)c2ccc(C)cc2C1=O [Compound 12.23, 2,7-dimethyl-3-(4-(trifluoromethyl)benzyl)naphthalene-1,4-dione] | 102 °C |  |
| CC1=C(Cc2ccc(Br)cc2)C(=O)c2ccc(C)cc2C1=O [Compound 12.24, 2,7-dimethyl-3-(4-bromobenzyl)naphthalene-1,4-dione] | 122 to 123 °C |  |
| CC1=C(Cc2ccc(C(F)(F)F)cc2)C(=O)c2cccc(C)c2C1=O [Compound 12.25, 2,8-dimethyl-3-(4-(trifluoromethyl)benzyl)naphthalene-1,4-dione] | 98 to 99 °C |  |
| CC1=C(Cc2ccc(Br)cc2)C(=O)c2cccc(C)c2C1=O [Compound 12.26, 2,8-dimethyl-3-(4-bromobenzyl)naphthalene-1,4-dione] | 116 to 118 °C |  |
| CC1=C(Cc2ccc(C(F)(F)F)cc2)C(=O)c2cc(C)c(C)cc2C1=O [Compound 12.27, 2,6,7-trimethyl-3-(4-(trifluoromethyl)benzyl)naphthalene-1,4-dione] | 143 to 144 °C |  |
| CC1=C(Cc2ccc(Br)cc2)C(=O)c2cc(C)c(C)cc2C1=O [Compound 12.28, 2,6,7-trimethyl-3-(4-bromobenzyl)naphthalene-1,4-dione] | 129 to 130 °C |  |
| Cc1c(O)c2ccccc2c2oc3cc(C(F)(F)F)ccc3c(=O)c12 [LJ144K, 5-hydroxy-6-methyl-10-(trifluoromethyl)-7H-benzo[c]xanthen-7-one] |  | Maximum inhibition (%) (hematin polymerization): 75%; IC50 drug (equiv.)/hematin (equiv.) ratio (hematin polymerization): 2.5 drug (equiv.)/hematin (equiv.) ratio; apparent association constants with hematin [1]: 10^5-10^6 M^−1; IC50 values, antimalarial effects (P. falciparum strain 3D7): submicromolar range |
| CC1=C(Cc2ccncc2)C(=O)c2ccccc2C1=O [LJ186] |  | inhibition of the β-hematin polymerization (hematin polymerization): very potent inhibitors; Maximum inhibition (%) (hematin polymerization): 80%; IC50 drug (equiv.)/hematin (equiv.) ratio (hematin polymerization): 4.2 drug (equiv.)/hematin (equiv.) ratio; antimalarial activity relative to chloroquine and P_TM29 (P. falciparum strain Dd2): more active than chloroquine or as active as P_TM29 |
